Laboratory results taken from patent US20230278972A1, “SUBSTITUTED HALOALKYL SULFONANILIDE HERBICIDES” (FMC Corporation, priority 2020, published 2023).
Where two headings read alike, the source gives them in different places.

Legend:
Type in all cases: in vivo
[1] = system: wheat (Triticum aestivum); assay: Test A postemergence, wheat; conditions: Triticum aestivum, post-emergence, 240 h, Postemergence, 0 to 100 scale (0 no effect, 100 complete control); for plant injury at 125 g/ha: 125 g ai/ha; for plant injury at 500 g/ha: 500 g ai/ha
Method in brief: (§1)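 Preemergence: seeded pots of loam plus sand received a directed soil spray. Postemergence: seedlings at one to two leaves, 2 to 10 cm high, were oversprayed. Each compound was formulated in a non-phytotoxic solvent mix that included a surfactant.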

[2] = system: ragweed (common ragweed, Ambrosia artemisiifolia); assay: Test A postemergence, ragweed; conditions: Ambrosia artemisiifolia, post-emergence, 240 h, Postemergence, 0 to 100 scale (0 no effect, 100 complete control); for pest or weed control at 125 g/ha: 125 g ai/ha; for pest or weed control at 500 g/ha: 500 g ai/ha
Method in brief: as §1

[3] = system: pigweed (Amaranthus retroflexus); assay: Test A postemergence, pigweed; conditions: Amaranthus retroflexus, post-emergence, 240 h, Postemergence, 0 to 100 scale (0 no effect, 100 complete control); for pest or weed control at 125 g/ha: 125 g ai/ha; for pest or weed control at 500 g/ha: 500 g ai/ha
Method in brief: as §1

[4] = system: corn (Zea mays); assay: Test A postemergence, corn; conditions: Zea mays, post-emergence, 240 h, Postemergence, 0 to 100 scale (0 no effect, 100 complete control); for Corn plant response rating (crop injury, 0 = no effect, 100 = complete kill) at 125 g/ha: 125 g ai/ha; for Corn plant response rating (crop injury, 0 = no effect, 100 = complete kill) at 500 g/ha / plant injury at 500 g/ha: 500 g ai/ha; for plant injury at 500 g/ha: visual injury vs untreated controls after approx. 10 days, read-out: Corn plant response rating
Method in brief: as §1

[5] = read-out: Plant response rating, Wheat
[6] = visual injury approx. 10 days, read-out: Plant response rating, Wheat
[7] = read-out: Plant response rating, Ragweed
[8] = visual injury approx. 10 days, read-out: Plant response rating, Ragweed
[9] = read-out: Plant response rating, Pigweed
[10] = visual injury approx. 10 days, read-out: Plant response rating, Pigweed
[11] = visual injury vs untreated controls after approx. 10 days, read-out: Wheat plant response rating
[12] = visual injury vs untreated controls after approx. 10 days, read-out: Ragweed plant response rating
[13] = visual injury vs untreated controls after approx. 10 days, read-out: Pigweed plant response rating
[14] = visual injury, approx. 10 days, read-out: Plant response rating, Wheat
[15] = visual injury, approx. 10 days, read-out: Plant response rating, Ragweed
[16] = visual injury, approx. 10 days, read-out: Plant response rating, Pigweed

SMILES	plant injury at 125 g/ha [1, 5] [%]	plant injury at 500 g/ha [1, 6] [%]	pest or weed control at 125 g/ha [2, 7] [%]	pest or weed control at 500 g/ha [2, 8] [%]	pest or weed control at 125 g/ha [3, 9] [%]	pest or weed control at 500 g/ha [3, 10] [%]	Corn plant response rating (crop injury, 0 = no effect, 100 = complete kill) at 125 g/ha [4] [%]	Corn plant response rating (crop injury, 0 = no effect, 100 = complete kill) at 500 g/ha ([4]; visual injury approx. 10 days) [%]	plant injury at 500 g/ha [1, 11] [%]	pest or weed control at 500 g/ha [2, 12] [%]	pest or weed control at 500 g/ha [3, 13] [%]	Corn plant response rating (crop injury, 0 = no effect, 100 = complete kill) at 125 g/ha ([4]; visual injury approx. 10 days) [%]	plant injury at 500 g/ha [4] [%]	plant injury at 125 g/ha [1, 6] [%]	pest or weed control at 125 g/ha [2, 8] [%]	pest or weed control at 125 g/ha [3, 10] [%]	plant injury at 500 g/ha [1, 14] [%]	pest or weed control at 500 g/ha [2, 15] [%]	pest or weed control at 500 g/ha [3, 16] [%]	Corn plant response rating (crop injury, 0 = no effect, 100 = complete kill) at 500 g/ha ([4]; visual injury, approx. 10 days) [%]
Cc1cc(C)c(C(=O)N2CCC(F)(F)CC2)cc1NS(=O)(=O)C(F)(F)F [Compound 241, N-[5-[(4,4-Difluoro-1-piperidinyl)carbonyl]-2,4-dimethylphenyl]-1,1,1-trifluoromethanesulfonamide]	30	70	40	80	60	80	10	20	–	–	–	–	–	–	–	–	–	–	–	–
Cc1cc(C)c(N(COC(=O)C(C)(C)C)S(=O)(=O)C(F)(F)F)cc1C1=NOC2(CCCC2)C1 [Compound 140, [[2,4-Dimethyl-5-(1-oxa-2-azaspiro[4.4]non-2-en-3-yl)phenyl][(trifluoromethyl)sulfonyl]amino]methyl 2,2-dimethylpropanoate]	0	–	0	–	10	–	–	–	60	50	80	0	30	–	–	–	–	–	–	–
Cc1cc(Cl)c(NS(=O)(=O)C(F)(F)F)cc1C(=O)N1CCC(F)(F)CC1 [Compound 229, N-[2-Chloro-5-[(4,4-difluoro-1-piperidinyl)carbonyl]-4-methylphenyl]-1,1,1-trifluoromethanesulfonamide]	60	–	90	–	80	–	20	–	70	90	100	–	70	–	–	–	–	–	–	–
Cc1cc(C)c(C2=NOC3(CCCC3)C2)cc1NS(=O)(=O)C(F)(F)F [Compound 207, N-[2,4-Dimethyl-5-(1-oxa-2-azaspiro[4.4]non-2-en-3-yl)phenyl]-1,1,1-trifluoromethanesulfonamide]	60	–	20	–	50	–	20	–	70	70	70	–	70	–	–	–	–	–	–	–
Cc1c(NS(=O)(=O)C(F)(F)F)cc(C(=O)N2CCOCC2)c(C)c1F [Compound 190, 1,1,1-Trifluoro-N-[3-fluoro-2,4-dimethyl-5-(4-morpholinylcarbonyl)phenyl]methanesulfonamide]	40	–	80	–	70	–	0	–	70	90	100	–	30	–	–	–	–	–	–	–
Cc1cc(C)c(C2=NO[C@@H]3CCC[C@H]23)cc1NS(=O)(=O)C(F)(F)F [Compound 103, N-[2,4-Dimethyl-5-[(3aR,6aR)-3a,5,6,6a-tetrahydro-4H-cyclopent[d]isoxazol-3-yl]phenyl]-1,1,1-trifluoromethanesulfonamide]	–	–	–	–	–	–	–	–	80	70	80	20	70	60	60	80	–	–	–	–
Cc1cc(C)c(N(COC(=O)C(C)(C)C)S(=O)(=O)C(F)(F)F)cc1C1=NOC2(CCCCC2)C1 [Compound 159, [[2,4-Dimethyl-5-(1-oxa-2-azaspiro[4.5]dec-2-en-3-yl)phenyl][(trifluoromethyl)sulfonyl]amino]methyl 2,2-dimethylpropanoate]	30	–	60	–	40	–	0	–	50	90	70	–	30	–	–	–	–	–	–	–
Cc1c(NS(=O)(=O)C(F)(F)F)cc(C(=O)N(C)C)c(C)c1F [Compound 128, 3-Fluoro-N,N,2,4-tetramethyl-5-[[(trifluoromethyl)sulfonyl]amino]benzamide]	–	–	–	–	–	–	–	–	60	90	90	10	60	30	80	60	–	–	–	–
CCc1cc(-c2cc(NS(=O)(=O)C(F)(F)F)c(C)cc2C)c(=O)n(C)n1 [Compound 34, N-[5-(6-Ethyl-2,3-dihydro-2-methyl-3-oxo-4-pyridazinyl)-2,4-dimethylphenyl]-1,1,1-trifluoromethanesulfonamide]	–	–	–	–	–	–	–	–	–	–	–	0	–	0	0	0	0	0	0	0
Cc1cc(Cl)c(NS(=O)(=O)C(F)(F)F)cc1C(=O)N1CCOCC1 [Compound 16, N-[2-Chloro-4-methyl-5-(4-morpholinylcarbonyl)phenyl]-1,1,1-trifluoromethanesulfonamide]	–	–	–	–	–	–	–	–	–	–	–	0	–	50	80	70	70	90	90	50
Cc1cc(C)c(C2=NOC3CCOCC23)cc1NS(=O)(=O)C(F)(F)F (centres unmarked) [Compound 120, N-[2,4-Dimethyl-5-(3a,6,7,7a-tetrahydro-4H-pyrano[3,4-d]isoxazol-3-yl)phenyl]-1,1,1-trifluoromethanesulfonamide]	–	–	–	–	–	–	–	–	70	90	90	0	70	70	80	60	–	–	–	–
Cc1cc(Cl)c(NS(=O)(=O)C(F)(F)F)cc1C(=O)N1CCCCC1 [Compound 18, N-[2-Chloro-4-methyl-5-(1-piperidinylcarbonyl)phenyl]-1,1,1-trifluoromethanesulfonamide]	–	–	–	–	–	–	–	–	–	–	–	0	–	0	0	40	70	80	90	0
Cc1cc(C)c(N(COC(=O)C(C)(C)C)S(=O)(=O)C(F)(F)F)cc1C1=NO[C@@H]2CCC[C@H]12 [Compound 100, [[2,4-Dimethyl-5-[(3aR,6aR)-3a,5,6,6a-tetrahydro-4H-cyclopent[d]isoxazol-3-yl]phenyl][(trifluoromethyl)sulfonyl]amino]methyl 2,2-dimethylpropanoate]	–	–	–	–	–	–	–	–	50	80	90	10	30	20	40	60	–	–	–	–
